Like-named read-outs stand apart in the source and are kept apart here.
Test: Toxicokinetics of LUM001 free form, 13-week oral capsule toxicity study in dogs
Assay type: in vivo, Beagle dogs
Design: AUC/Dose / Cmax/Dose: unit not given here
Details: for Cmax / Tmax / AUC(0-t): Beagle, dog, plasma, oral; for AUC(0-t): read-out: AUC(0-24 h), mean
Protocol: Six- to seven-month old Beagle dogs of body weights of 4.9-9.5 kg (4/sex/group) orally via capsules at 0, 5, 20 or 100 mg/kg for 13 consecutive weeks. Plasma levels of LUM001 (free form) were evaluated on Days 1 and 91. LUM001 was administered by once daily oral gelatin capsules. […] therefore, 105% of a stated dose is given to provide the appropriate amount of compound for dosing. On study Day 1 and Day 91, approximately 2 mL of venous blood was collected in heparinized tubes from the cephalic vein of each animal at 1, 2, 3, 5, 8, and 24 hours post-dose. Blood collection tubes were mixed and placed on ice during the collection period after which they were centrifuged and the plasma was harvested into cryotubes within approximately 60 minutes of blood collection. Plasma samples were stored at approximately −70° C. or lower until analyzed.
The concentration of LUM001 free form in plasma were determined using an LCMSMS method. The assay sensitivity was 5.00 ng/mL for a […] sample.

[1] = both sexes, 5 mg/kg, Day 1, 5 mg/kg, Comb
[2] = both sexes, 5 mg/kg, Day 91, 5 mg/kg, Comb
[3] = both sexes, 20 mg/kg, Day 1, 20 mg/kg, Comb
[4] = both sexes, 20 mg/kg, Day 91, 20 mg/kg, Comb
[5] = both sexes, 100 mg/kg, Day 1, 100 mg/kg, Comb
[6] = both sexes, 100 mg/kg, Day 91, 100 mg/kg, Comb
[7] = female, 5 mg/kg, Day 1, 5 mg/kg, F
[8] = female, 20 mg/kg, Day 1, 20 mg/kg, F
[9] = female, 20 mg/kg, Day 91, 20 mg/kg, F
[10] = female, 100 mg/kg, Day 1, 100 mg/kg, F
[11] = female, 100 mg/kg, Day 91, 100 mg/kg, F
[12] = male, 5 mg/kg, Day 1, 5 mg/kg, M
[13] = male, 5 mg/kg, Day 91, 5 mg/kg, M
[14] = male, 20 mg/kg, Day 1, 20 mg/kg, M
[15] = male, 20 mg/kg, Day 91, 20 mg/kg, M
[16] = male, 100 mg/kg, Day 1, 100 mg/kg, M
[17] = male, 100 mg/kg, Day 91, 100 mg/kg, M

CCCCC1(CCCC)CS(=O)(=O)c2ccc(N(C)C)cc2[C@@H](c2ccc(OCc3ccc(C[N+]45CCN(CC4)CC5)cc3)cc2)[C@H]1O [LUM001]
AUC/Dose (Day 1, 5 mg/kg, Comb): 3.55 | BA (Day 1, 5 mg/kg, Comb): 0.1% | Cmax/Dose (Day 1, 5 mg/kg, Comb): 1.81 | AUC/Dose (Day 1, 5 mg/kg, F): 4.17 | BA (Day 1, 5 mg/kg, F): <0.1% | Cmax/Dose (Day 1, 5 mg/kg, F): 1.87 | AUC/Dose (Day 1, 5 mg/kg, M): 2.92 | BA (Day 1, 5 mg/kg, M): <0.1% | Cmax/Dose (Day 1, 5 mg/kg, M): 1.76 | AUC/Dose (Day 1, 20 mg/kg, Comb): 3.63 | BA (Day 1, 20 mg/kg, Comb): 0.1% | Cmax/Dose (Day 1, 20 mg/kg, Comb): 1.25 | AUC/Dose (Day 1, 20 mg/kg, F): 2.43 | BA (Day 1, 20 mg/kg, F): <0.1% | Cmax/Dose (Day 1, 20 mg/kg, F): 1.27 | AUC/Dose (Day 1, 20 mg/kg, M): 4.84 | BA (Day 1, 20 mg/kg, M): <0.1% | Cmax/Dose (Day 1, 20 mg/kg, M): 1.24 | AUC/Dose (Day 1, 100 mg/kg, Comb): 2.39 | BA (Day 1, 100 mg/kg, Comb): <0.1% | Cmax/Dose (Day 1, 100 mg/kg, Comb): 0.907 | AUC/Dose (Day 1, 100 mg/kg, F): 3.44 | BA (Day 1, 100 mg/kg, F): <0.1% | Cmax/Dose (Day 1, 100 mg/kg, F): 1.17 | AUC/Dose (Day 1, 100 mg/kg, M): 1.34 | BA (Day 1, 100 mg/kg, M): <0.1% | Cmax/Dose (Day 1, 100 mg/kg, M): 0.648 | AUC/Dose (Day 91, 5 mg/kg, Comb): 0.350 | BA (Day 91, 5 mg/kg, Comb): <0.1% | Cmax/Dose (Day 91, 5 mg/kg, Comb): 0.350 | AUC/Dose (Day 91, 5 mg/kg, F): 0.00 | BA (Day 91, 5 mg/kg, F): <0.1% | Cmax/Dose (Day 91, 5 mg/kg, F): 0.00 | AUC/Dose (Day 91, 5 mg/kg, M): 0.700 | BA (Day 91, 5 mg/kg, M): <0.1% | Cmax/Dose (Day 91, 5 mg/kg, M): 0.700 | AUC/Dose (Day 91, 20 mg/kg, Comb): 2.54 | BA (Day 91, 20 mg/kg, Comb): 0.1% | Cmax/Dose (Day 91, 20 mg/kg, Comb): 1.19 | AUC/Dose (Day 91, 20 mg/kg, F): 2.70 | BA (Day 91, 20 mg/kg, F): <0.1% | Cmax/Dose (Day 91, 20 mg/kg, F): 1.25 | AUC/Dose (Day 91, 20 mg/kg, M): 2.38 | BA (Day 91, 20 mg/kg, M): <0.1% | Cmax/Dose (Day 91, 20 mg/kg, M): 1.13 | AUC/Dose (Day 91, 100 mg/kg, Comb): 5.03 | BA (Day 91, 100 mg/kg, Comb): 0.2% | Cmax/Dose (Day 91, 100 mg/kg, Comb): 1.40 | AUC/Dose (Day 91, 100 mg/kg, F): 6.01 | BA (Day 91, 100 mg/kg, F): <0.1% | Cmax/Dose (Day 91, 100 mg/kg, F): 1.82 | AUC/Dose (Day 91, 100 mg/kg, M): 4.05 | BA (Day 91, 100 mg/kg, M): <0.1% | Cmax/Dose (Day 91, 100 mg/kg, M): 0.974 | Cmax [1]: 9.07 ng/mL | Tmax [1]: 1.5 h | AUC(0-t) [1]: 17.7 ng·h/mL | Cmax [2]: 1.75 ng/mL | Tmax [2]: 0.375 h | AUC(0-t) [2]: 1.75 ng·h/mL | Cmax [3]: 25.1 ng/mL | Tmax [3]: 2.13 h | AUC(0-t) [3]: 72.6 ng·h/mL | Cmax [4]: 23.8 ng/mL | Tmax [4]: 1.88 h | AUC(0-t) [4]: 50.8 ng·h/mL | Cmax [5]: 90.7 ng/mL | Tmax [5]: 1.38 h | AUC(0-t) [5]: 239 ng·h/mL | Cmax [6]: 140 ng/mL | Tmax [6]: 2 h | AUC(0-t) [6]: 503 ng·h/mL | Cmax [7]: 9.34 ng/mL | Tmax [7]: 1.25 h | AUC(0-t) [7]: 20.9 ng·h/mL | Tmax (female, 5 mg/kg, Day 91, 5 mg/kg, F): 0 h | Cmax [8]: 25.3 ng/mL | Tmax [8]: 2 h | AUC(0-t) [8]: 48.5 ng·h/mL | Cmax [9]: 25 ng/mL | Tmax [9]: 2 h | AUC(0-t) [9]: 53.9 ng·h/mL | Cmax [10]: 117 ng/mL | Tmax [10]: 1.5 h | AUC(0-t) [10]: 344 ng·h/mL | Cmax [11]: 182 ng/mL | Tmax [11]: 1.75 h | AUC(0-t) [11]: 601 ng·h/mL | Cmax [12]: 8.79 ng/mL | Tmax [12]: 1.75 h | AUC(0-t) [12]: 14.6 ng·h/mL | Cmax [13]: 3.5 ng/mL | Tmax [13]: 0.75 h | AUC(0-t) [13]: 3.5 ng·h/mL | Cmax [14]: 24.8 ng/mL | Tmax [14]: 2.25 h | AUC(0-t) [14]: 96.7 ng·h/mL | Cmax [15]: 22.6 ng/mL | Tmax [15]: 1.75 h | AUC(0-t) [15]: 47.6 ng·h/mL | Cmax [16]: 64.8 ng/mL | Tmax [16]: 1.25 h | AUC(0-t) [16]: 134 ng·h/mL | Cmax [17]: 97.4 ng/mL | Tmax [17]: 2.25 h | AUC(0-t) [17]: 405 ng·h/mL

Source: patent publication US20140271734A1, “BILE ACID RECYCLING INHIBITORS FOR TREATMENT OF BARRETT'S ESOPHAGUS AND GASTROESOPHAGEAL REFLUX DISEASE” (LUMENA PHARMACEUTICALS, INC., priority 2013, published 2014)
